How the values were obtained:
histamine H3 receptor = target: T1, histamine H3 receptor (Homo sapiens, UniProt Q9Y5N1); assay: Histamine H3 functional antagonist assay (GTPγS, membranes); type: biochemical; conditions: CHO K1 membranes, [35S]-GTPγS, histamine at EC80; read-out: average pKi (pKb) at H3 (converted)
T1 construct: expressed in transfected cells; host or cells: CHO K1 cells with pSwitch/pGeneH3 (GeneSwitch, mifepristone-induced), clone 3H3; membrane preparation
Procedure, shortened: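 Membranes came from CHO K1 cells with mifepristone-inducible (10 nM, 18 h) human H3 receptor expression, clone 3H3. Test compounds in DMSO were combined with WGA polystyrene LeadSeeker SPA beads, membranes and GDP.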

human H1 receptor [1] = target: T2, human H1 receptor (Homo sapiens, UniProt P35367); assay: Histamine H1 functional antagonist assay: determination of functional pKi values (FLIPR); type: cell-based; conditions: CHO cells expressing human H1 receptor, histamine at EC80, read-out: average pKi (pKb) at H1 (converted)
T2 construct: expressed in transfected cells
T2 sequence (P35367 whole entry): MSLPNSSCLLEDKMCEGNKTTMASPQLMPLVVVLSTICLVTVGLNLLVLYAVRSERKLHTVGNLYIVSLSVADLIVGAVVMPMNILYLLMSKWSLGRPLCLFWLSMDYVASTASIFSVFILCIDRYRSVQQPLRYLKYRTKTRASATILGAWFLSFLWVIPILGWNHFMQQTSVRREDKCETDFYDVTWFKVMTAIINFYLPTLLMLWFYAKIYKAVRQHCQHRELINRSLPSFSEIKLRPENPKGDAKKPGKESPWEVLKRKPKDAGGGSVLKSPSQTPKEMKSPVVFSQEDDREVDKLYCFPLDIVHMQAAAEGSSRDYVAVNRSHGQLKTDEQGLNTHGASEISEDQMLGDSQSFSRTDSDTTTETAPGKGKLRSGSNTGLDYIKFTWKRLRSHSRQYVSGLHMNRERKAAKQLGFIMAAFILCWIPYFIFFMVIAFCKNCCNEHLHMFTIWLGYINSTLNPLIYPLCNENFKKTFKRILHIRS
Procedure, shortened: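 CHO cells stably expressing human H1 receptor, loaded with Fluo-4 for 60 min, then preincubated with compound 30 min at 37° C in Tyrodes buffer with probenecid, pH 7.40. Histamine added at EC80; suppression of calcium fluorescence on FLIPR gives functional affinity from concentration-effect curves.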

human H1 receptor [2] = target: T2, human H1 receptor; assay: Histamine H1 functional antagonist assay: antagonist duration; type: cell-based; conditions: at one or more time points, after washout
Description: The human H1 receptor is cloned using known procedures described in the literature [Biochem. Biophys. Res. Commun., 201(2):894 (1994)]. Chinese hamster ovary (CHO) cells stably expressing the human H1 receptor are generated according to known procedures described in the literature [Br. J. Pharmacol., 117(6):1071 (1996)].
To determine the antagonist duration, cells are cultured overnight in non-coated black-walled clear bottom 96-well tissue culture plates, are washed with PBS and are incubated with a concentration of antagonist chosen to give an approximate DR in the range 30-300. Following the 30 min antagonist incubation period, the cells are washed two or three times with 200 μl of PBS and then 100 μl Tyrodes buffer is added to each well to initiate antagonist dissociation. Following incubation for predetermined times, typically 30-270 min at 37° C., the cells are then washed again with 200 μl PBS and are incubated with 100 μl Tyrodes buffer containing Brilliant Black, probenecid and Fluo-4 for 45 min at 37° C., as described above. After this period, the cells are challenged with histamine in the FLIPR™ as described above. The dose ratio at each time point is used to determine the fractional H1 receptor occupancy by the following equation: fractional receptor occupancy=(DR-1)/DR. The decrease in receptor occupancy over time approximates to a straight line and is analysed by linear regression. The slope of this straight line fit is used as an index of the dissociation rate of the antagonist. The dose ratios for antagonist treated cells and for antagonist treated and washed cells at each time point are used to calculate a relative dose ratio (rel DR) which is also used as an index of antagonist duration. Antagonists with long duration of action produce rel DR values close to 1, and antagonists with short duration of action produce rel DR values that approaches the dose ratio value obtained for antagonist treatment alone.

T1 sequence (Q9Y5N1 whole entry, species assumed): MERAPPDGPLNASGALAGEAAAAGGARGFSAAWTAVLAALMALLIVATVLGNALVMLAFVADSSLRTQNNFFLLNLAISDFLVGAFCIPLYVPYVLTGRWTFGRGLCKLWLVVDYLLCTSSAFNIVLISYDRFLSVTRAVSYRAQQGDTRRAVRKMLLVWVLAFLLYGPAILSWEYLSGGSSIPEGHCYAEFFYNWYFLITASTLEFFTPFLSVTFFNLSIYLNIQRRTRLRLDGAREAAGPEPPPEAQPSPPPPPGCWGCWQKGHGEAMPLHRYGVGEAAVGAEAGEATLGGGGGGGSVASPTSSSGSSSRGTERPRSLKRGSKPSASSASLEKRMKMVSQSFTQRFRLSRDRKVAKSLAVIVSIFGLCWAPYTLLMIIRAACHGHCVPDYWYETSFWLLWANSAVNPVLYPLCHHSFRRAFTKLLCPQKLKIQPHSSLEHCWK

Row | Ki (histamine H3 receptor) | Ki (human H1 receptor [1]) | Compound | duration of action compared with azelastine (human H1 receptor [2])
1 | > 316 nM | < 10 nM | CCCCc1cc(OC2CCN(C[C@H]3CC[C@H](C(=O)N(CC)CC)CC3)CC2)c2ncccc2c1 [Example 43, Trans-4-({4-[(6-butyl-8-quinolinyl)oxy]-1-piperidinyl}methyl)-N,N-diethylcyclohexane carboxamide] | longer duration of action than azelastine
2 | > 316 nM | < 10 nM | CCCCc1cc(OC2CCN(C[C@H]3CC[C@H](C(=O)N4CCCCC4)CC3)CC2)c2ncccc2c1 [Example 44, 6-Butyl-8-[(1-{[trans-4-(1-piperidinylcarbonyl)cyclohexyl]methyl}-4-piperidinyl)oxy]quinoline] | longer duration of action than azelastine

From patent US20100222349A1, “QUINOLINE DERIVATIVES USED TO TREAT INFLAMMATORY AND ALLERGIC DISEASES” (Glaxo Group Limited, priority 2007, published 2010)
